Test system: moderate-to-severe chronic spontaneous urticaria (CSU)
Assay: Phase 2 CSU study: urticaria activity score over 7 days (UAS7)
Format: in vivo, human
Set-up: key to UAS7 Median / UAS7 Change from baseline Median / UAS7 change from baseline, Q1 / UAS7 change from baseline, Q3 / UAS7 change from baseline, Max / UAS7 Change from baseline LS Mean (SE): UAS7 points; daily UAS score ranges 0–6 points/day, over 7 days
Settings: for UAS7 change from baseline at Week 12, LS Mean (SE): ANCOVA; for UAS7 Change from baseline Mean (SD) / UAS7 Change from baseline Median / UAS7 Percent change from baseline Mean (SD) / UAS7 Percent change from baseline Median / UAS7 change from baseline, Max / UAS7 change from baseline, Min / UAS7 change from baseline, Q1 / UAS7 change from baseline, Q3 / UAS7 percent change from baseline, Max / UAS7 percent change from baseline, Min / UAS7 percent change from baseline, Q1 / UAS7 percent change from baseline, Q3: double-blind period, last week block of Table 17 (week heading not shown)
Excerpt: The study comprises a 12 week, randomized, double-blind, placebo-controlled, multi-center, dose-ranging efficacy and safety phase, followed by a 40 week open label extension (OLE) phase (see FIG. 1). The study consists of three phases and an optional OLE phase. […] Clinically, CSU is characterized by the spontaneous and recurrent appearance of pruritic hives. The proposed primary endpoints were the UAS7 at Week 12 in EU and EU reference countries and the ISS7 in the US. Regardless of where a participant was from, all assessments were the same. The UAS7 score is a composite score containing both the HSS7 and the ISS7. This allowed a global assessment of the two key components of urticaria: hives and itch. […] The UAS is a validated PRO measure. […] The daily UAS scores range from 0 to 6 point/day. […] Patients were to complete the UAS using the e-diary. […] The following secondary endpoints were to be analyzed using the same approach as for the primary endpoint: • Change from baseline in UAS7 at Week 4 • Change from baseline in UAS7 at Week 12 (for US and US reference countries) • Change from baseline in ISS7 at Week 12 (except US and US reference countries) • Change from baseline in HSS7 at Week 12 The following responder secondary endpoints were to be analyzed using the Cochran-Mantel-Haenszel test adjusted by region: • Proportion of participants with UAS7<6 at Week 12 • Proportion of participants with UAS7=0 at Week 12 Participants who received selected prohibited medications and/or rescue medications were to be considered as non-responders for time points after the medication usage. For other participants, all available data including those collected during the off-treatment period were to be used to determine the responder/non-responder status. Missing data were to be considered as non-responders.

[1] = 400 mg BID, Omalizumab-Naïve Population (N = 35), n observed/imputed 5 (3/2)
[2] = 400 mg BID, Week 12, omalizumab-naïve
[3] = 400 mg BID, omalizumab-naïve population
[4] = 400 mg BID, omalizumab-naïve population with outlier removed
[5] = 400 mg QPM, Omalizumab-Naïve Population (N = 37), n observed/imputed 7 (3/4)
[6] = 400 mg QPM, omalizumab-naïve population
[7] = 400 mg QPM, omalizumab-naïve population with outlier removed

CC(C)(C=C(C#N)C(=O)N1CCC[C@@H](n2nc(-c3ccc(Oc4ccccc4)cc3F)c3c(N)ncnc32)C1)N1CCN(C2COC2)CC1 [rilzabrutinib, (R)-2-[3-[4-amino-3-(2-fluoro-4-phenoxy-phenyl)pyrazolo[3,4-d]pyrimidin-1-yl]piperidine-1-carbonyl]-4-methyl-4-[4-(oxetan-3-yl)piperazin-1-yl]pent-2-enenitrile]
improvement compared to placebo across all endpoints (400 mg BID): positive improvements across all endpoints
UAS7 at Week 12, Mean (SD) (400 mg BID, ITT population): 14.70 (14.29)
UAS7 at Week 12, Median (400 mg BID, ITT population): 12.00
UAS7 change from baseline at Week 12, LS Mean Diff vs. placebo (95% CI) (400 mg BID, ITT population): −3.62 (−8.87, 1.63)
UAS7 change from baseline at Week 12, Mean (SD) (400 mg BID, ITT population): −16.02 (13.29) ^
UAS7 change from baseline at Week 12, Median (400 mg BID, ITT population): −13.50
UAS7 change from baseline at Week 12, LS Mean (SE) (400 mg BID, ITT population): −14.82 (1.98)
LS mean change in UAS7 from baseline to Week 12 (see Table 18) (400 mg BID, ITT population, sentence on reductions following one week of treatment): −10.01
UAS7 Change from baseline Mean (SD) [1]: −14.40 (13.79)
UAS7 Change from baseline Median [1]: −13.00
UAS7 Percent change from baseline Mean (SD) [1]: −51.30 (48.04) %
UAS7 Percent change from baseline Median [1]: −48.15%
UAS7 change from baseline, Max [1]: 0.0
UAS7 change from baseline, Min [1]: −29.0
UAS7 change from baseline, Q1 [1]: −28.00
UAS7 change from baseline, Q3 [1]: −2.00
UAS7 percent change from baseline, Max [1]: 0.0%
UAS7 percent change from baseline, Min [1]: −100.0%
UAS7 percent change from baseline, Q1 [1]: −100.00%
UAS7 percent change from baseline, Q3 [1]: −8.33%
participants with UAS7 of 0 [2]: 14.3%
participants with UAS7 of ≤6 [2]: 20.0%
LS mean reduction in UAS7 from baseline to Week 12 (see Table 19) [3]: −9.79
UAS7 at Week 12, Mean (SD) [3]: 15.61 (13.91)
UAS7 at Week 12, Median [3]: 14.00
UAS7 change from baseline at Week 12, LS Mean Diff vs. placebo (95% CI) [3]: −4.09 (−9.59, 1.40)
UAS7 change from baseline at Week 12, Mean (SD) [3]: −14.49 (12.08) ^
UAS7 change from baseline at Week 12, Median [3]: −12.80
UAS7 at Week 12, Mean (SD) [4]: 15.61 (13.91)
UAS7 at Week 12, Median [4]: 14.00
UAS7 change from baseline at Week 12, LS Mean Diff vs. placebo (95% CI) [4]: −4.29 (−9.74, 1.16)
UAS7 change from baseline at Week 12, Mean (SD) [4]: −14.49 (12.08) ^
UAS7 change from baseline at Week 12, Median [4]: −12.80
UAS7 change from baseline at Week 12, LS Mean (SE) [4]: −14.30 (2.06)
UAS7 change from baseline at Week 12, LS Mean (SE) [3]: −14.24 (2.06)
difference to placebo across endpoints (400 mg QPM): no difference
UAS7 at Week 12, Mean (SD) (400 mg QPM, ITT population): 21.80 (10.94)
UAS7 at Week 12, Median (400 mg QPM, ITT population): 22.40
UAS7 change from baseline at Week 12, LS Mean Diff vs. placebo (95% CI) (400 mg QPM, ITT population): 0.97 (−4.40, 6.34)
UAS7 change from baseline at Week 12, Mean (SD) (400 mg QPM, ITT population): −11.04 (9.56)
UAS7 change from baseline at Week 12, Median (400 mg QPM, ITT population): −9.40
UAS7 change from baseline at Week 12, LS Mean (SE) (400 mg QPM, ITT population): −10.22 (2.01)
UAS7 Change from baseline Mean (SD) [5]: −21.44 (16.26)
UAS7 Change from baseline Median [5]: −28.00
UAS7 Percent change from baseline Mean (SD) [5]: −66.12 (46.34) %
UAS7 Percent change from baseline Median [5]: −86.67%
UAS7 change from baseline, Max [5]: 0.3
UAS7 change from baseline, Min [5]: −38.0
UAS7 change from baseline, Q1 [5]: −36.40
UAS7 change from baseline, Q3 [5]: 0.00
UAS7 percent change from baseline, Max [5]: 1.1%
UAS7 percent change from baseline, Min [5]: −100.0%
UAS7 percent change from baseline, Q1 [5]: −100.00%
UAS7 percent change from baseline, Q3 [5]: 0.00%
UAS7 at Week 12, Median [6]: 22.87
UAS7 change from baseline at Week 12, LS Mean Diff vs. placebo (95% CI) [6]: 0.40 (−5.08, 5.89)
UAS7 change from baseline at Week 12, Mean (SD) [6]: −10.57 (9.36)
UAS7 change from baseline at Week 12, Median [6]: −8.70
UAS7 at Week 12, Median [7]: 22.87
UAS7 change from baseline at Week 12, LS Mean Diff vs. placebo (95% CI) [7]: 0.08 (−5.29, 5.46)
UAS7 change from baseline at Week 12, Mean (SD) [7]: −10.57 (9.36)
UAS7 change from baseline at Week 12, Median [7]: −8.70
UAS7 change from baseline at Week 12, LS Mean (SE) [7]: −9.93 (1.96) ^
UAS7 change from baseline at Week 12, LS Mean (SE) [6]: −9.74 (2.00) ^
patients with improvement in the weekly UAS7 (400 mg TID arm): all patients except for one showed improvement
UAS7 at Week 12, Median (400 mg TID, ITT population): 9.00

Reference: patent US20260256792A1, “TREATMENT OF CHRONIC SPONTANEOUS URTICARIA BY ADMINISTERING (R)-2-[3-[4-AMINO-3-(2-FLUORO-4-PHENOXY-PHENYL)PYRAZOLO[3,4-D]PYRIMIDIN-1-YL]PIPERIDINE-1-CARBONYL]-4-METHYL-4-[4-(OXETAN-3-YL)PIPERAZIN-1-YL]PENT-2-ENENITRILE” (priority 2023, published 2026)
